Patent US12528812B2 (Genentech, Inc., priority 2020, dated 2026)
pIC50, pKi: −log10 of the molar value. Like-named read-outs stand apart in the source and are kept apart here.

What was measured:
[1] = test system: IL-13-stimulated STAT6 phosphorylation in human lung bronchial epithelial BEAS-2B cell line; experiment: P-STAT6 BEAS-2B + IL-13 cell assay; assay type: cell-based; conditions: BEAS2B cells, IL13 stimulation, read-out: Cellular JAK1 PSTAT6 BEAS2B + IL13
Outline: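 BEAS-2B cells grown 48 h at 37 °C, pre-treated 1 h with compound (10-point 1:2 dilution curve), then stimulated 15 min with human recombinant IL-13 (250 ng/mL stock). Lysate P-STAT6 (Tyr641) read by MSD sandwich ELISA with total-STAT6 capture; IC50 from four-parameter logistic fit of control-normalised data.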

[2] = molecular target: Recombinant human JAK2 kinase domain protein (Residues 812-1132) (Homo sapiens, UniProt O60674); experiment: JAK2 biochemical assay (LabChip mobility shift, Ki); conditions: Biochem JAK2 Ki
Chain of Recombinant human JAK2 kinase domain protein (Residues 812-1132) (O60674 812-1132): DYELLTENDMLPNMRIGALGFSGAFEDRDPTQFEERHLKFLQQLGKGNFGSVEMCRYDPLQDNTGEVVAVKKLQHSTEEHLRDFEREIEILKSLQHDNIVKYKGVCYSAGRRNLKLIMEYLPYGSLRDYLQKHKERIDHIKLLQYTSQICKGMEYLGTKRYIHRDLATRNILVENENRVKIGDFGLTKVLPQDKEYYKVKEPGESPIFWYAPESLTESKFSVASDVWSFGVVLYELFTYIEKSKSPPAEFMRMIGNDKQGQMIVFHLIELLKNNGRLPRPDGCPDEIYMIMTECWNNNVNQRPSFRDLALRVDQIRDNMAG
Experimental: The in vitro biochemical assays quantify JAK-catalyzed phosphorylation of a synthetic peptide, as detected using a LabChip® EZ Reader II microfluidic mobility shift instrument (PerkinElmer; Waltham, MA). […] Y-1B is fluorescently labeled on the N-terminus with 5-FAM (5-carboxyfluorescein) and contains a single tyrosine residue (Y) that can be phosphorylated by JAK activity. The substrate peptide stock is prepared in DMSO at 5 mM. […] In each titration experiment, test compound was tested in duplicate at each of the twelve concentrations. Blank reactions contained ATP, peptide, and DMSO, but no JAK or test compound, whereas uninhibited control reactions contained ATP, peptide, JAK, and DMSO, but no test compound.
Peptide plus ATP mixture (24 μL) was added to 1 μL of test compound in DMSO (or DMSO alone). The reactions were initiated by adding 25 μL of JAK enzyme to the inhibitor/peptide/ATP mixture before thoroughly mixing the resultant solution. Reactions were incubated at room temperature (22° C.-23° C.) in a final volume of 50 μL per well in 384-well plates. After a 30-minute incubation, the reactions were stopped by adding 25 μL of 150 mM ethylenediaminetetraacetic acid in 100 mM HEPES buffer (pH 7.2) containing 0.015% Brij 35 to each well.
In each reaction, the residual Y-1B substrate and the phospho-peptide product generated were separated using the EZ Reader II instrument. Electrophoretic separation of molecules of product from molecules of substrate was achieved using downstream and upstream voltages of −500 and −2600 V, respectively, at an operating pressure of −1.3 psi.
The extent (or percent) of conversion of substrate to product was calculated from the corresponding peak heights in the electropherogram using HTS Well Analyzer software, Version 5.2 (PerkinElmer), and the following equation (Equation 1): conversion=[P÷(S+P)]×100 Equation 1% where S and P represent the peak heights of the substrate and product, respectively. After any baseline signal from blank wells containing no JAK was subtracted from the signal of all test wells, the % conversion data were converted to fractional activity as shown in Equation 2, where vi and vo are the % conversion in the presence and absence of test compound, respectively.

[3] = molecular target: T1, recombinant human JAK1 kinase domain protein (Residues 854-1154) (Homo sapiens, UniProt P23458); experiment: JAK1 biochemical assay (LabChip mobility shift, Ki); conditions: read-out: Biochem JAK1 Ki
T1 construct: human JAK1 kinase domain protein (Residues 854-1154); purchased Proteros Biostructures GmbH (Martinsried, Germany); host or cells: insect cells
T1 sequence (P23458 854-1154): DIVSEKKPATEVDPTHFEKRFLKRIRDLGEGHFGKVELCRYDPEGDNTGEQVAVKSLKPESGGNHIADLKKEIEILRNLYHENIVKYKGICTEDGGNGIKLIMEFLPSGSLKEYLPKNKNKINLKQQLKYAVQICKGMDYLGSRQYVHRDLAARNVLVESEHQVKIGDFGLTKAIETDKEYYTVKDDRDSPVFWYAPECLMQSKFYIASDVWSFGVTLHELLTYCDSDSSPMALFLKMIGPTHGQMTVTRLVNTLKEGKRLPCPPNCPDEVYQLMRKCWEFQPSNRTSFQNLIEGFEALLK

SMILES	pKi [2]	pKi [3]	pIC50 ([1]; Homo sapiens, BEAS-2B)	pIC50 [1]
Cn1cc(NC(=O)c2cnn3cccnc23)c(-c2cc(Oc3ccc(C4(CC#N)CNC4)cc3)ccc2OC(F)F)n1 [Example 148, N-[3-[5-[4-[3-(cyanomethyl)azetidin-3-yl]phenoxy]-2-(difluoromethoxy)phenyl]-1-methyl-pyrazol-4-yl]pyrazolo[1,5-a]pyrimidine-3-carboxamide]	8.72	8.44	6.68	
Cc1c(Oc2ccc(OC(F)F)c(-c3nn(C)cc3NC(=O)c3cnn4cccnc34)c2)cnn1C [Example 152, N-[3-[2-(difluoromethoxy)-5-(1,5-dimethylpyrazol-4-yl)oxy-phenyl]-1-methyl-pyrazol-4-yl]pyrazol[1,5-a]pyrimidine-3-carboxamide]	9.52	9.51	7.70	
Cc1nn(CCO)cc1Oc1ccc(OC(F)F)c(-c2nn(C)cc2NC(=O)c2cnn3cccnc23)c1 [Example 154, N-[3-[2-(difluoromethoxy)-5-[1-(2-hydroxyethyl)-3-methyl-pyrazol-4-yl]oxy-phenyl]-1-methyl-pyrazol-4-yl]pyrazolo[1,5-a]pyrimidine-3-carboxamide]	9.54	9.24	7.43	
O=C(Nc1cn(C2COC2)nc1-c1cc(Oc2ccc3c(c2)CNCC3)ccc1OC(F)F)c1cnn2cccnc12 [Example 157, N-[3-[2-(difluoromethoxy)-5-(1,2,3,4-tetrahydroisoquinolin-7-yloxy)phenyl]-1-(oxetan-3-yl)pyrazol-4-yl]pyrazolo[1,5-a]pyrimidine-3-carboxamide]	9.55	9.51	7.55	
CN(C)C(=O)c1cncc(Oc2ccc(OC(F)F)c(-c3nn(C)cc3NC(=O)c3cnn4cccnc34)c2)c1 [Example 159, N-[3-[2-(difluoromethoxy)-5-[[5-(dimethylcarbamoyl)-3-pyridyl]oxy]phenyl]-1-methyl-pyrazol-4-yl]pyrazolo[1,5-a]pyrimidine-3-carboxamide]	9.43	9.27	7.37	
Cn1cc(Oc2ccc(OC(F)F)c(-c3nn(CC(N)=O)cc3NC(=O)c3cnn4cccnc34)c2)cn1 [Example 174, N-[1-(2-amino-2-oxo-ethyl)-3-[2-(difluoromethoxy)-5-(1-methylpyrazol-4-yl)oxy-phenyl]pyrazol-4-yl]pyrazolo[1,5-a]pyrimidine-3-carboxamide]	9.04	8.80	6.62	
Cn1cc(NC(=O)c2cnn3cccnc23)c(-c2cc(Oc3ccccn3)ccc2OC(F)F)n1 [Example 175, N-[3-[2-(difluoromethoxy)-5-(2-pyridyloxy)phenyl]-1-methyl-pyrazol-4-yl]pyrazolo[1,5-a]pyrimidine-3-carboxamide]	9.24	8.96	7.17	
Cn1cc(NC(=O)c2cnn3cccnc23)c(-c2cc(Oc3cnn(C4CNCC4O)c3)ccc2OC(F)F)n1 (stereo not drawn) [Example 177, N-[3-[2-(difluoromethoxy)-5-[1-(4-hydroxypyrrolidin-3-yl)pyrazol-4-yl]oxy-phenyl]-1-methyl-pyrazol-4-yl]pyrazolo[1,5-a]pyrimidine-3-carboxamide]	9.47	9.24		6.48
Cn1cc(NC(=O)c2cnn3cccnc23)c(-c2cc(Oc3cnn(C4CCNCC4O)c3)ccc2OC(F)F)n1 (stereo not drawn) [Example 182, N-[3-[2-(difluoromethoxy)-5-[1-(3-hydroxy-4-piperidyl)pyrazol-4-yl]oxy-phenyl]-1-methyl-pyrazol-4-yl]pyrazolo[1,5-a]pyrimidine-3-carboxamide]	9.37	9.19	6.80	
Cn1cc(NC(=O)c2cnn3cccnc23)c(-c2cc(Oc3cnn([C@H]4C[C@H](N)C4)c3)ccc2OC(F)F)n1 [Example 188, N-[3-[5-[1-(3-aminocyclobutyl)pyrazol-4-yl]oxy-2-(difluoromethoxy)phenyl]-1-methyl-pyrazol-4-yl]pyrazolo[1,5-a]pyrimidine-3-carboxamide]	9.11	9.04	6.82	

The next compounds have a higher pKi [2] than those just listed; values first:

pKi [2]	pKi [3]	SMILES	pIC50 ([1]; Homo sapiens, BEAS-2B)	pIC50 [1]
9.77	9.55	Cn1cc(NC(=O)c2cnn3cccnc23)c(-c2cc(Oc3ccc(CC(=O)N4CCC4)cc3)ccc2OC(F)F)n1 [Example 149, N-[3-[5-[4-[2-(azetidin-1-yl)-2-oxo-ethyl]phenoxy]-2-(difluoromethoxy)phenyl]-1-methyl-pyrazol-4-yl]pyrazolo[1,5-a]pyrimidine-3-carboxamide]	7.70	
9.66	9.68	Cn1cc(NC(=O)c2cnn3cccnc23)c(-c2cc(Oc3ccc4c(c3)CNCC4)ccc2OC(F)F)n1 [Example 150, N-[3-[2-(difluoromethoxy)-5-(1,2,3,4-tetrahydroisoquinolin-7-yloxy)phenyl]-1-methyl-pyrazol-4-yl]pyrazolo[1,5-a]pyrimidine-3-carboxamide]	7.80	
9.70	9.54	Cc1n[nH]cc1Oc1ccc(OC(F)F)c(-c2nn(C)cc2NC(=O)c2cnn3cccnc23)c1 [Example 151, N-[3-[2-(difluoromethoxy)-5-[(3-methyl-1H-pyrazol-4-yl)oxy]phenyl]-1-methy1-pyrazol-4-yl]pyrazolo[1,5-a]pyrimidine-3-carboxamide]	7.72	
9.64	9.34	Cc1nn(C)cc1Oc1ccc(OC(F)F)c(-c2nn(C)cc2NC(=O)c2cnn3cccnc23)c1 [Example 153, N-[3-[2-(difluoromethoxy)-5-(1,3-dimethylpyrazol-4-yl)oxy-phenyl]-1-methyl-pyrazol-4-yl]pyrazolo[1,5-a]pyrimidine-3-carboxamide]	7.57	
9.68	9.51	Cc1c(Oc2ccc(OC(F)F)c(-c3nn(C)cc3NC(=O)c3cnn4cccnc34)c2)cnn1CCO [Example 155, N-[3-[2-(difluoromethoxy)-5-[1-(2-hydroxyethyl)-5-methyl-pyrazol-4-yl]oxy-phenyl]-1-methyl-pyrazol-4-yl]pyrazolo[1,5-a]pyrimidine-3-carboxamide]	7.60	
9.92	9.57	Cn1cc(NC(=O)c2cnn3cccnc23)c(-c2cc(Oc3ccc(CC(=O)N4CCOCC4)cc3)ccc2OC(F)F)n1 [Example 156, N-[3-[2-(difluoromethoxy)-5-[4-(2-morpholino-2-oxo-ethyl)phenoxy]phenyl]-1-methyl-pyrazol-4-yl]pyrazolo[1,5-a]pyrimidine-3-carboxamide]	7.64	
9.68	9.60	Cn1cc(NC(=O)c2cnn3cccnc23)c(-c2cc(Oc3cnn(C4CNCC4O)c3)ccc2OC(F)F)n1 (stereo not drawn) [Example 176, N-[3-[2-(difluoromethoxy)-5-[1-(4-hydroxypyrrolidin-3-yl)pyrazol-4-yl]oxy-phenyl]-1-methyl-pyrazol-4-yl]pyrazolo[1,5-a]pyrimidine-3-carboxamide]	6.68	
9.66	9.39	Cn1cc(NC(=O)c2cnn3cccnc23)c(-c2cc(Oc3cnn(C4CCNCC4O)c3)ccc2OC(F)F)n1 (stereo not drawn) [Example 183, N-[3-[2-(difluoromethoxy)-5-[1-(3-hydroxy-4-piperidyl)pyrazol-4-yl]oxy-phenyl]-1-methyl-pyrazol-4-yl]pyrazolo[1,5-a]pyrimidine-3-carboxamide]		6.82
